In patent US12540141B2, “Spiropyrrolidine derived antiviral agents” (priority 2020, dated 2026):

What follows are molecules tested against SARS-CoV-2 3CL-protease (Severe acute respiratory syndrome coronavirus 2, UniProt P0DTD1) (assay: SARS-CoV-2 3C-Like (3CL) Protease Fluorescence Assay (FRET)). Conditions: SARS-CoV-2 3CL-protease 10 nM, 30 min preincubation at RT, substrate 40 μM.
Type: biochemical

| Structure (SMILES) | IC50 |
| --- | --- |
| [2H]C([2H])([2H])N(C(=O)c1cn(C2CCC2)nn1)[C@@H](CCCC)C(=O)N1C[C@]2(C[C@H]1C#N)C(=O)Nc1ccccc12 [Example 392] | < 0.1 µM |
| [2H]C([2H])([2H])N(C(=O)c1cn(C(C)(C)C)nn1)[C@@H](CCCC)C(=O)N1C[C@]2(C[C@H]1C#N)C(=O)Nc1ccccc12 [Example 393] | < 0.1 µM |
| [2H]C([2H])([2H])N(C(=O)c1cnn(CC(F)(F)F)c1)[C@@H](CC1CC1)C(=O)N1C[C@]2(C[C@H]1C#N)C(=O)Nc1ccccc12 [Example 395] | < 0.1 µM |
| [2H]C([2H])([2H])N(C(=O)c1cnn(-c2ccc(C(F)(F)F)cc2)c1)[C@@H](CC1CC1)C(=O)N1C[C@]2(C[C@H]1C#N)C(=O)Nc1ccccc12 [Example 396] | < 0.1 µM |
| [2H]C([2H])([2H])N(C(=O)c1nnn2ccccc12)[C@@H](CCCC)C(=O)N1C[C@]2(C[C@H]1C#N)C(=O)Nc1ccccc12 [Example 397] | < 0.1 µM |
| [2H]C([2H])([2H])N(C(=O)c1cnn2cc(Cl)ccc12)[C@@H](CCCC)C(=O)N1C[C@]2(C[C@H]1C#N)C(=O)Nc1ccccc12 [Example 398] | < 0.1 µM |
| [2H]C([2H])([2H])N(C(=O)c1cnn(C(C)(C)C)c1C(F)(F)F)[C@@H](CC1CC1)C(=O)N1C[C@]2(C[C@H]1C#N)C(=O)Nc1ccccc12 [Example 400] | < 0.1 µM |
| [2H]C([2H])([2H])N(C(=O)c1cn(CC(F)(F)F)nc1C1CC1)[C@@H](CC1CC1)C(=O)N1C[C@]2(C[C@H]1C#N)C(=O)Nc1ccccc12 [Example 401] | < 0.1 µM |
| CN(C(=O)c1cn(C(C)(C)C)nn1)[C@@H](CC1CC1)C(=O)N1C[C@]2(C[C@H]1C#N)C(=O)Nc1ccccc12 [Example 402] | < 0.1 µM |
| CN(C(=O)c1cnn(-c2ccc(F)cc2)c1)[C@@H](CC1CC1)C(=O)N1C[C@]2(C[C@H]1C#N)C(=O)Nc1ccccc12 [Example 405] | < 0.1 µM |
| CN(C(=O)c1cnn(-c2ccc(C(F)(F)F)cc2)c1)[C@@H](CC1CC1)C(=O)N1C[C@]2(C[C@H]1C#N)C(=O)Nc1ccccc12 [Example 406] | < 0.1 µM |
| CN(C(=O)c1cnc(C(F)(F)F)[nH]1)[C@@H](CC1CC1)C(=O)N1C[C@]2(C[C@H]1C#N)C(=O)Nc1ccccc12 [Example 407] | < 0.1 µM |
| CCCC[C@@H](C(=O)N1C[C@]2(C[C@H]1C#N)C(=O)Nc1ccccc12)N(C)C(=O)c1cnn(C(C)(C)C)c1 [Example 408] | < 0.1 µM |
| CN(C(=O)c1cnn(C(C)(C)C)c1Cl)[C@@H](CC1CC1)C(=O)N1C[C@]2(C[C@H]1C#N)C(=O)Nc1ccccc12 [Example 409] | < 0.1 µM |
| CN(C(=O)c1cnc(C(C)(C)C)[nH]1)[C@@H](CC1CC1)C(=O)N1C[C@]2(C[C@H]1C#N)C(=O)Nc1ccccc12 [Example 410] | < 0.1 µM |
| CN(C(=O)c1cnn(C2CCCCC2)c1)[C@@H](CC1CC1)C(=O)N1C[C@]2(C[C@H]1C#N)C(=O)Nc1ccccc12 [Example 411] | < 0.1 µM |
| CN(C(=O)c1cc2c(F)cc(F)c(F)c2[nH]1)[C@@H](CCC(C)(C)C)C(=O)N1C[C@]2(C[C@H]1C#N)C(=O)Nc1ccccc12 [Example 412] | < 0.1 µM |
| CCCOC[C@@H](C(=O)N1C[C@]2(C[C@H]1C#N)C(=O)Nc1ccccc12)N(C)C(=O)c1cc2c(F)cc(F)cc2[nH]1 [Example 413, N—((S)-1-((3R,5′S)-5′-cyano-2-oxospiro[indoline-3,3′-pyrrolidin]-1′-yl)-1-oxo-3-propoxypropan-2-yl)-4,6-difluoro-N-methyl-1H-indole-2-carboxamide] | < 0.1 µM |
| CN(C(=O)[C@H](O)C(C)(C)C)[C@@H](CC1CC1)C(=O)N1C[C@]2(C[C@H]1C#N)C(=O)Nc1ccccc12 [Example 417] | < 0.1 µM |

| Structure (SMILES) | IC50 |
| --- | --- |
| CCCC[C@H](NC(=O)[C@@H](O)c1ccc(F)cc1)C(=O)N1C[C@]2(C[C@H]1C#N)C(=O)Nc1ccccc12 [Example 418] | < 0.1 µM |
| CCCC[C@H](NC(=O)[C@H](O)c1ccc(F)cc1)C(=O)N1C[C@]2(C[C@H]1C#N)C(=O)Nc1ccccc12 [Example 419] | < 0.1 µM |
| CN(C(=O)[C@H](O)Cc1ccc(F)cc1)[C@@H](CC1CC1)C(=O)N1C[C@]2(C[C@H]1C#N)C(=O)Nc1ccccc12 [Example 423] | < 0.1 µM |
| CC(C)C[C@@H](O)C(=O)N(C)[C@@H](CC1CC1)C(=O)N1C[C@]2(C[C@H]1C#N)C(=O)Nc1ccccc12 [Example 424] | < 0.1 µM |
| CN(C(=O)[C@H](O)c1ccccc1F)[C@@H](CC1CC1)C(=O)N1C[C@]2(C[C@H]1C#N)C(=O)Nc1ccccc12 [Example 425] | < 0.1 µM |
| CN(C(=O)[C@H](O)c1ccccc1Cl)[C@@H](CC1CC1)C(=O)N1C[C@]2(C[C@H]1C#N)C(=O)Nc1ccccc12 [Example 426] | < 0.1 µM |
| [2H]C([2H])([2H])N(C(=O)[C@@H](O)c1ccccc1)[C@@H](CC(C)(C)C)C(=O)N1C[C@]2(C[C@H]1C#N)C(=O)Nc1ccccc12 [Example 427] | < 0.1 µM |
| [2H]C([2H])([2H])N(C(=O)[C@H](O)c1ccccc1)[C@@H](CC(C)(C)C)C(=O)N1C[C@]2(C[C@H]1C#N)C(=O)Nc1ccccc12 [Example 428] | < 0.1 µM |
| COc1ccc(CN(C(=O)C(F)(F)F)[C@@H](CC(C)C)C(=O)N2C[C@]3(C[C@H]2C#N)C(=O)Nc2ccccc23)cc1 [Example 429] | > 1 µM |
| COc1cccc(CN(C(=O)C(F)(F)F)[C@@H](CC(C)C)C(=O)N2C[C@]3(C[C@H]2C#N)C(=O)Nc2ccccc23)c1 [Example 430] | > 1 µM |
| COc1ccccc1CN(C(=O)C(F)(F)F)[C@@H](CC(C)C)C(=O)N1C[C@]2(C[C@H]1C#N)C(=O)Nc1ccccc12 [Example 431] | > 1 µM |
| CC(C)C[C@@H](C(=O)N1C[C@]2(C[C@H]1C#N)C(=O)Nc1ccccc12)N(C(=O)C(F)(F)F)C(C)C [Example 432] | > 1 µM |
| CC(C)C[C@@H](C(=O)N1C[C@]2(C[C@H]1C#N)C(=O)Nc1ccccc12)N(C)C(=O)NCc1ccccc1 [Example 433] | < 0.1 µM |
| CC(C)C[C@@H](C(=O)N1C[C@]2(C[C@H]1C#N)C(=O)Nc1ccccc12)N(C)C(=O)N1Cc2cn[nH]c2C1 [Example 434] | 0.1 to 1 µM |
| CC(C)(C)C[C@H](NC(=O)Nc1ccccc1)C(=O)N1C[C@]2(C[C@H]1C#N)C(=O)Nc1ccccc12 [Example 435] | 0.1 to 1 µM |
| CC(C)(C)C[C@H](NC(=O)Nc1ccc(F)cc1F)C(=O)N1C[C@]2(C[C@H]1C#N)C(=O)Nc1ccccc12 [Example 436] | 0.1 to 1 µM |
| CC(C)(C)C[C@H](NC(=O)Nc1c(F)cccc1F)C(=O)N1C[C@]2(C[C@H]1C#N)C(=O)Nc1ccccc12 [Example 437] | 0.1 to 1 µM |
| Cc1cccc(C)c1NC(=O)N[C@@H](CC(C)(C)C)C(=O)N1C[C@]2(C[C@H]1C#N)C(=O)Nc1ccccc12 [Example 438] | 0.1 to 1 µM |
| CC(C)(C)C[C@H](NC(=O)Nc1ccc2ccccc2c1)C(=O)N1C[C@]2(C[C@H]1C#N)C(=O)Nc1ccccc12 [Example 439] | 0.1 to 1 µM |

| Structure (SMILES) | IC50 |
| --- | --- |
| CC(C)(C)C[C@H](NC(=O)NC1CCCCC1)C(=O)N1C[C@]2(C[C@H]1C#N)C(=O)Nc1ccccc12 [Example 440] | < 0.1 µM |
| CC(C)(C)C[C@H](NC(=O)Nc1ccc(F)cc1)C(=O)N1C[C@]2(C[C@H]1C#N)C(=O)Nc1ccccc12 [Example 441] | 0.1 to 1 µM |
| CC(=O)C[C@@H](C(=O)N1C[C@]2(C[C@H]1C#N)C(=O)Nc1ccccc12)N(C)C(=O)c1cc2c(F)cc(F)cc2[nH]1 [Example 442] | < 0.1 µM |
| CN(C(=O)c1cc2c(F)cc(F)cc2[nH]1)[C@@H](CC(C)(C)O)C(=O)N1C[C@]2(C[C@H]1C#N)C(=O)Nc1ccccc12 [Example 443] | 0.1 to 1 µM |
| CN(C(=O)c1cc2c(F)cc(F)c(F)c2[nH]1)[C@@H](CC(C)(C)O)C(=O)N1C[C@]2(C[C@H]1C#N)C(=O)Nc1ccccc12 [Example 444] | 0.1 to 1 µM |
| CC(C)(F)C[C@H](NC(=O)COc1ccc(F)cc1F)C(=O)N1C[C@]2(C[C@H]1C#N)C(=O)Nc1ccc(Cl)cc12 [Example 445] | 0.1 to 1 µM |
| CC(C)(F)C[C@H](NC(=O)c1cc2ccccn2n1)C(=O)N1C[C@]2(C[C@H]1C#N)C(=O)Nc1ccc(Cl)cc12 [Example 446] | 0.1 to 1 µM |
| CC(C)(F)C[C@H](NC(=O)c1cccc(OC(F)(F)F)c1)C(=O)N1C[C@]2(C[C@H]1C#N)C(=O)Nc1ccc(Cl)cc12 [Example 447] | < 0.1 µM |
| CC(C)(C)C[C@H](NC(=O)c1cc2c(F)cc(F)cc2[nH]1)C(=O)N1C[C@]2(C[C@H]1C#N)C(=O)Nc1ccc(Cl)cc12 [Example 448] | < 0.1 µM |
| CC(C)(F)C[C@H](NC(=O)c1ccc(F)cc1F)C(=O)N1C[C@]2(C[C@H]1C#N)C(=O)Nc1ccc(Cl)cc12 [Example 449] | 0.1 to 1 µM |
| CC(C)(C)C[C@H](NC(=O)c1cc2c(Cl)cccc2[nH]1)C(=O)N1C[C@]2(C[C@H]1C#N)C(=O)Nc1ccc(Cl)cc12 [Example 450] | < 0.1 µM |
| N#C[C@@H]1C[C@@]2(CN1C(=O)[C@H](Cc1ccccc1F)NC(=O)c1cc3c(F)cc(F)cc3[nH]1)C(=O)Nc1ccc(Cl)cc12 [Example 451] | < 0.1 µM |
| N#C[C@@H]1C[C@@]2(CN1C(=O)[C@H](Cc1ccc(F)cc1)NC(=O)c1cc3c(F)cc(F)cc3[nH]1)C(=O)Nc1ccc(Cl)cc12 [Example 452] | < 0.1 µM |
| N#C[C@@H]1C[C@@]2(CN1C(=O)[C@H](CC1CC1)NC(=O)c1cc3c(F)cc(F)cc3[nH]1)C(=O)Nc1ccc(Cl)cc12 [Example 453] | < 0.1 µM |
| [2H]C([2H])([2H])N(C(=O)c1cc2c(F)cc(F)cc2[nH]1)[C@@H](CC(C)(C)F)C(=O)N1C[C@]2(C[C@H]1C#N)C(=O)Nc1ccc(Cl)cc12 [Example 454] | < 0.1 µM |
| CN(C(=O)c1cc2c(F)cc(F)cc2[nH]1)[C@@H](CC(C)(C)F)C(=O)N1C[C@]2(C[C@H]1C#N)C(=O)Nc1ccc(Cl)cc12 [Example 455] | < 0.1 µM |
| CN(C(=O)c1cc2ncccc2[nH]1)[C@@H](CC1CC1)C(=O)N1C[C@]2(C[C@H]1C#N)C(=O)Nc1ccc(Cl)cc12 [Example 456] | < 0.1 µM |
| CN(C(=O)c1cc2cnccc2[nH]1)[C@@H](CC1CC1)C(=O)N1C[C@]2(C[C@H]1C#N)C(=O)Nc1ccc(Cl)cc12 [Example 457] | < 0.1 µM |
| CN(C(=O)c1cc2ccncc2[nH]1)[C@@H](CC1CC1)C(=O)N1C[C@]2(C[C@H]1C#N)C(=O)Nc1ccc(Cl)cc12 [Example 458] | < 0.1 µM |
